Publication PMC7912279, “Preclinical Evaluation of ^99mTc-Labeled GRPR Antagonists maSSS/SES-PEG2-RM26 for Imaging of Prostate Cancer” (Pharmaceutics, 2021)

Assays:
[1] = Octanol-water distribution coefficient (logD); format: physicochemical; details: determined as previously described [35]
Procedure: To test the stability, the radiolabeled peptides were incubated with 300× molar excess of cysteine or with PBS at room temperature for 1 h. The octanol-water distribution coefficient (logD) was determined as previously described.

PC-3 xenografts = experiment: Biodistribution in tumor bearing mice; format: in vivo; details: BALB/c nu/nu mice bearing PC-3 xenografts; for uptake, Blood / uptake, Bone / uptake, GI (gastrointestinal tract with content) / uptake, Intestine / uptake, Kidneys / uptake, Liver / uptake, Lung / uptake, Muscle / uptake, Pancreas / uptake, Spleen / uptake, Stomach / uptake, Tumor: 40 pmol (30 kBq), gamma counter, 4-7 mice; for Tumor-to-non-tumor ratio, Blood / Tumor-to-non-tumor ratio, Bone / Tumor-to-non-tumor ratio, Intestine / Tumor-to-non-tumor ratio, Kidneys / Tumor-to-non-tumor ratio, Liver / Tumor-to-non-tumor ratio, Lung / Tumor-to-non-tumor ratio, Muscle / Tumor-to-non-tumor ratio, Pancreas / Tumor-to-non-tumor ratio, Spleen / Tumor-to-non-tumor ratio, Stomach: 40 pmol
Procedure: Animals: All in vivo experiments were carried out on BALB/c nu/nu or NMRI mice provided by Scanbur A/S (Sollentuna, Sweden). All animal studies were approved by the Ethics Committee for Animal Research in Uppsala (Sweden), following the national legislation on the protection of laboratory animals (project identification code of approval 5/16, 26 February 2016). Prostate cancer xenografts expressing GRPR were established in BALB/c nu/nu mice by subcutaneous injection of PC-3 cell suspension in PBS (7 × 10^6 cells in 100 µL) four weeks before the experiment. Four to seven mice per data point were used in in vivo experiments, two mice per data point were used in metabolic analysis and SPECT/CT imaging experiments.
Biodistribution in tumor bearing mice: The comparison of biodistribution between the two radiolabeled peptides was evaluated in BALB/c nu/nu mice bearing PC-3 xenografts. Each mouse was injected with 40 pmol (30 kBq, mass of injected peptide was adjusted with unlabeled peptide) of either [^99mTc]Tc-maSSS-PEG2-RM26 or [^99mTc]Tc-maSES-PEG2-RM26. The mice were euthanized 3 h pi. Sample collection and activity measurements were done as described above. The biodistribution of [^99mTc]Tc-maSSS-PEG2-RM26 was further studied at 6 h pi following the same protocol. Additionally for [^99mTc]Tc-maSSS-PEG2-RM26, one group of xenograft bearing mice was injected with 40 pmol (30 kBq, mass of injected peptide was adjusted with unlabeled peptide) of labeled peptide with 5 nmol of unlabeled peptide and euthanized 3 h pi.

[2] = Metabolite analysis of urine and caecum content by radio-HPLC; format: in vivo; details: NMRI mice, 40 pmol, 3 h pi, two mice
Procedure: Metabolite Analysis: The NMRI mice were injected with 40 pmol of [^99mTc]Tc-maSSS-PEG2-RM26 (3 MBq) or [^99mTc]Tc-maSES-PEG2-RM26 (5.8 MBq). The mice were euthanized by CO2 inhalation 3 h pi, the content of the caecum and urine were collected and analyzed using HPLC as previously described. Centrifugation was performed using Centrifuge 5430 R (Eppendorf, Hamburg, Germany).

[3] = Biodistribution in NMRI mice for dosimetry estimation; format: in vivo; details: 40 pmol (30–500 kBq)
Procedure: Dosimetry estimation: To estimate the organs’ absorbed doses after iv injection of [^99mTc]Tc-maSSS-PEG2-RM26, NMRI mice were injected with 40 pmol (30–500 kBq) of the radiolabeled peptide and biodistribution was evaluated 0.5, 1, 3, 6, and 24 h pi. Sample collection and activity measurements were done as described above. To evaluate dosimetry in humans, uptake values in mice were upscaled using the well-established “percent kg/g method” [37] (Equation (1)):(%IA/organ)human = [(%IA/g)animal × (kg TBweight)animal × (g organ/(kg TBweight)human](1) where %IA-% injected activity.

- logD [1]: -0.6
- uptake, Blood (PC-3 xenografts; 3 h pi): 0.09 ± 0.04 % IA/g
- uptake, Bone (PC-3 xenografts; 3 h pi): 0.04 ± 0.02 % IA/g
- uptake, GI (gastrointestinal tract with content) (PC-3 xenografts; 3 h pi): 56 ± 3 % IA
- uptake, Intestine (PC-3 xenografts; 3 h pi): 3 ± 1 % IA/g
- uptake, Kidneys (PC-3 xenografts; 3 h pi): 0.7 ± 0.4 % IA/g
- uptake, Liver (PC-3 xenografts; 3 h pi): 3 ± 1 % IA/g
- uptake, Lung (PC-3 xenografts; 3 h pi): 0.12 ± 0.03 % IA/g
- uptake, Muscle (PC-3 xenografts; 3 h pi): 0.04 ± 0.02 % IA/g
- uptake, Pancreas (PC-3 xenografts; 3 h pi): 6.1 ± 0.8 % IA/g
- uptake, Spleen (PC-3 xenografts; 3 h pi): 0.12 ± 0.04 % IA/g
- uptake, Stomach (PC-3 xenografts; 3 h pi): 1.4 ± 0.3 % IA/g
- uptake, Tumor (PC-3 xenografts; 3 h pi): 7 ± 2 % IA/g
- uptake, Blood (PC-3 xenografts; 6 h pi): 0.056 ± 0.009 % IA/g
- uptake, Bone (PC-3 xenografts; 6 h pi): 0.02 ± 0.02 % IA/g
- uptake, GI (gastrointestinal tract with content) (PC-3 xenografts; 6 h pi): 26 ± 6 % IA
- uptake, Intestine (PC-3 xenografts; 6 h pi): 0.4 ± 0.2 % IA/g
- uptake, Kidneys (PC-3 xenografts; 6 h pi): 0.59 ± 0.06 % IA/g
- uptake, Liver (PC-3 xenografts; 6 h pi): 0.68 ± 0.08 % IA/g
- uptake, Lung (PC-3 xenografts; 6 h pi): 0.20 ± 0.10 % IA/g
- uptake, Muscle (PC-3 xenografts; 6 h pi): 0.012 ± 0.004 % IA/g
- uptake, Pancreas (PC-3 xenografts; 6 h pi): 0.98 ± 0.08 % IA/g
- uptake, Spleen (PC-3 xenografts; 6 h pi): 0.06 ± 0.01 % IA/g
- uptake, Stomach (PC-3 xenografts; 6 h pi): 0.9 ± 0.2 % IA/g
- uptake, Tumor (PC-3 xenografts; 6 h pi): 3 ± 1 % IA/g
- Tumor-to-non-tumor ratio, Blood (PC-3 xenografts; 3 h pi): 97 ± 56
- Tumor-to-non-tumor ratio, Bone (PC-3 xenografts; 3 h pi): 177 ± 79
- Tumor-to-non-tumor ratio, Intestine (PC-3 xenografts; 3 h pi): 3 ± 1
- Tumor-to-non-tumor ratio, Kidneys (PC-3 xenografts; 3 h pi): 14 ± 9
- Tumor-to-non-tumor ratio, Liver (PC-3 xenografts; 3 h pi): 3 ± 2
- Tumor-to-non-tumor ratio, Lung (PC-3 xenografts; 3 h pi): 65 ± 20
- Tumor-to-non-tumor ratio, Muscle (PC-3 xenografts; 3 h pi): 188 ± 32
- Tumor-to-non-tumor ratio, Pancreas (PC-3 xenografts; 3 h pi): 1.2 ± 0.4
- Tumor-to-non-tumor ratio, Spleen (PC-3 xenografts; 3 h pi): 62 ± 14
- Tumor-to-non-tumor ratio, Stomach (PC-3 xenografts; 3 h pi): 5 ± 2
- Tumor-to-non-tumor ratio, Blood (PC-3 xenografts; 6 h pi): 57 ± 22
- Tumor-to-non-tumor ratio, Bone (PC-3 xenografts; 6 h pi): 287 ± 232
- Tumor-to-non-tumor ratio, Intestine (PC-3 xenografts; 6 h pi): 9 ± 4
- Tumor-to-non-tumor ratio, Kidneys (PC-3 xenografts; 6 h pi): 5 ± 2
- Tumor-to-non-tumor ratio, Liver (PC-3 xenografts; 6 h pi): 5 ± 2
- Tumor-to-non-tumor ratio, Lung (PC-3 xenografts; 6 h pi): 18 ± 8
- Tumor-to-non-tumor ratio, Muscle (PC-3 xenografts; 6 h pi): 270 ± 67
- Tumor-to-non-tumor ratio, Pancreas (PC-3 xenografts; 6 h pi): 3 ± 1
- Tumor-to-non-tumor ratio, Spleen (PC-3 xenografts; 6 h pi): 50 ± 16
- Tumor-to-non-tumor ratio, Stomach (PC-3 xenografts; 6 h pi): 3 ± 1
- intact radiolabeled peptide in urine and gastrointestinal (caecum) content [2]: no intact radiolabeled peptide
- uptake, Blood ([3]; 0.5 h pi): 0.7 ± 0.1 % IA/g
- uptake, Body ([3]; 0.5 h pi): 4.5 ± 0.9 %IA/sample
- uptake, Bone ([3]; 0.5 h pi): 0.26 ± 0.09 % IA/g
- uptake, Brain ([3]; 0.5 h pi): 0.031 ± 0.008 % IA/g
- uptake, Caecum ([3]; 0.5 h pi): 0.34 ± 0.09 %IA/sample
- uptake, Heart ([3]; 0.5 h pi): 0.27 ± 0.10 % IA/g
- uptake, Kidneys ([3]; 0.5 h pi): 2.5 ± 0.6 % IA/g
- uptake, Liver ([3]; 0.5 h pi): 4 ± 1 % IA/g
- uptake, Lung ([3]; 0.5 h pi): 0.7 ± 0.3 % IA/g
- uptake, Muscle ([3]; 0.5 h pi): 0.13 ± 0.03 % IA/g
- uptake, Pancreas ([3]; 0.5 h pi): 7 ± 2 % IA/g
- uptake, Small intestine ([3]; 0.5 h pi): 10 ± 2 %IA/sample
- uptake, Spleen ([3]; 0.5 h pi): 1.1 ± 0.4 % IA/g
- uptake, Stomach ([3]; 0.5 h pi): 2.2 ± 0.2 %IA/sample
- uptake, Upper large intestine ([3]; 0.5 h pi): 0.4 ± 0.3 %IA/sample
- uptake, Body ([3]; 1 h pi): 6 ± 1 %IA/sample
- uptake, Bone ([3]; 1 h pi): 0.2 ± 0.1 % IA/g
- uptake, Brain ([3]; 1 h pi): 0.04 ± 0.02 % IA/g
- uptake, Caecum ([3]; 1 h pi): 0.9 ± 0.2 %IA/sample
- uptake, Heart ([3]; 1 h pi): 0.23 ± 0.03 % IA/g
- uptake, Kidneys ([3]; 1 h pi): 4 ± 1 % IA/g
- uptake, Large intestine ([3]; 1 h pi): 0.6 ± 0.1 %IA/sample
- uptake, Liver ([3]; 1 h pi): 6 ± 1 % IA/g
- uptake, Lung ([3]; 1 h pi): 0.9 ± 0.4 % IA/g
- uptake, Pancreas ([3]; 1 h pi): 13 ± 6 % IA/g
- uptake, Small intestine ([3]; 1 h pi): 44 ± 10 %IA/sample
- uptake, Spleen ([3]; 1 h pi): 2.4 ± 1.6 % IA/g
- uptake, Stomach ([3]; 1 h pi): 6 ± 2 %IA/sample
- uptake, Blood ([3]; 3 h pi): 0.38 ± 0.06 % IA/g
- uptake, Body ([3]; 3 h pi): 4 ± 2 %IA/sample
- uptake, Bone ([3]; 3 h pi): 0.27 ± 0.04 % IA/g
- uptake, Brain ([3]; 3 h pi): 0.03 ± 0.01 % IA/g
- uptake, Caecum ([3]; 3 h pi): 16 ± 4 %IA/sample
- uptake, Heart ([3]; 3 h pi): 0.12 ± 0.01 % IA/g
- uptake, Kidneys ([3]; 3 h pi): 1.5 ± 0.3 % IA/g
- uptake, Large intestine ([3]; 3 h pi): 3.3 ± 3.5 %IA/sample
- uptake, Liver ([3]; 3 h pi): 2.5 ± 0.4 % IA/g
- uptake, Lung ([3]; 3 h pi): 0.44 ± 0.07 % IA/g
- uptake, Muscle ([3]; 3 h pi): 0.061 ± 0.006 % IA/g
- uptake, Pancreas ([3]; 3 h pi): 3.2 ± 0.7 % IA/g
- uptake, Small intestine ([3]; 3 h pi): 9 ± 3 %IA/sample
- uptake, Spleen ([3]; 3 h pi): 2 ± 1 % IA/g
- uptake, Stomach ([3]; 3 h pi): 5 ± 1 %IA/sample
- uptake, Upper large intestine ([3]; 3 h pi): 5.2 ± 5.1 %IA/sample
- uptake, Blood ([3]; 6 h pi): 0.30 ± 0.07 % IA/g
- uptake, Body ([3]; 6 h pi): 2.8 ± 0.2 %IA/sample
- uptake, Bone ([3]; 6 h pi): 0.18 ± 0.03 % IA/g
- uptake, Brain ([3]; 6 h pi): 0.03 ± 0.01 % IA/g
- uptake, Caecum ([3]; 6 h pi): 18 ± 3 %IA/sample
- uptake, Heart ([3]; 6 h pi): 0.17 ± 0.08 % IA/g
- uptake, Kidneys ([3]; 6 h pi): 1.3 ± 0.3 % IA/g
- uptake, Large intestine ([3]; 6 h pi): 30 ± 13 %IA/sample
- uptake, Liver ([3]; 6 h pi): 1.1 ± 0.3 % IA/g
- uptake, Lung ([3]; 6 h pi): 0.3 ± 0.1 % IA/g
- uptake, Muscle ([3]; 6 h pi): 0.05 ± 0.03 % IA/g
- uptake, Small intestine ([3]; 6 h pi): 2.5 ±0.8 %IA/sample
- uptake, Spleen ([3]; 6 h pi): 0.6 ± 0.5 % IA/g
- uptake, Stomach ([3]; 6 h pi): 3.2 ±0.4 %IA/sample
- uptake, Upper large intestine ([3]; 6 h pi): 14 ± 1 %IA/sample
- uptake, Blood ([3]; 24 h pi): 0.030 ± 0.006 % IA/g
- uptake, Body ([3]; 24 h pi): 0.27 ± 0.05 %IA/sample
- uptake, Bone ([3]; 24 h pi): 0.04 ± 0.02 % IA/g
- uptake, Brain ([3]; 24 h pi): 0.006 ± 0.004 % IA/g
- uptake, Caecum ([3]; 24 h pi): 0.3 ± 0.2 %IA/sample
- uptake, Heart ([3]; 24 h pi): 0.021 ± 0.003 % IA/g
- uptake, Kidneys ([3]; 24 h pi): 0.46 ± 0.08 % IA/g
- uptake, Large intestine ([3]; 24 h pi): 0.05 ± 0.03 %IA/sample
- uptake, Liver ([3]; 24 h pi): 0.39 ± 0.05 % IA/g
- uptake, Lung ([3]; 24 h pi): 0.09 ± 0.04 % IA/g
- uptake, Muscle ([3]; 24 h pi): 0.006 ± 0.003 % IA/g
- uptake, Pancreas ([3]; 24 h pi): 0.10 ± 0.02 % IA/g
- uptake, Small intestine ([3]; 24 h pi): 0.10 ± 0.05 %IA/sample
- uptake, Spleen ([3]; 24 h pi): 0.37 ± 0.09 % IA/g
- uptake, Stomach ([3]; 24 h pi): 0.2 ± 0.1 %IA/sample
- uptake, Upper large intestine ([3]; 24 h pi): 0.05 ± 0.01 %IA/sample
SMILES: CC(C)C[C@H](NC(=O)C[C@H](O)[C@H](CC(C)C)NC(=O)[C@H](Cc1c[nH]cn1)NC(=O)CNC(=O)[C@@H](NC(=O)[C@H](C)NC(=O)[C@H](Cc1c[nH]c2ccccc12)NC(=O)[C@H](CCC(N)=O)NC(=O)[C@@H](Cc1ccccc1)NC(=O)COCCOCCNC(=O)[C@H](CO)NC(=O)[C@H](CO)NC(=O)[C@H](CO)NC(=O)CS)C(C)C)C(N)=O [[^99mTc]Tc-maSSS-PEG2-RM26, metal not drawn]
